Several values for one entry are separate records, joined by “and”; a condition that tells them apart may be missing. Equal values may be shown once. Inconclusive results and toxic doses are left out. How the source made its calls: active means survival T/C of 150% or more; inactive means T/C below 125% in these data.
Tested on: CD2F1 mice, L1210 leukemia ip, survival T/C
Test: NCI In Vivo Anticancer Drug Screen. Data for tumor model L1210 Leukemia (intraperitoneal) in CD2F1 (CDF1) mice
Settings: higher = longer survival
Summary of the method: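 Tumor-bearing mice (transplanted tumor) were split into treated and vehicle control groups, and the measured endpoint of each treated group was divided by that of its vehicle controls.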

[1] = endpoint: mean survival time, dose: 12.5 mg/kg/injection, schedule: Q01DX009 (ip), vehicle: saline with Tween-80
[2] = endpoint: mean survival time, dose: 25.0 mg/kg/injection, schedule: Q01DX009 (ip), vehicle: saline with Tween-80
[3] = endpoint: mean survival time, dose: 100.0 mg/kg/injection, schedule: Q04DX003 (ip), vehicle: saline with Tween-80
[4] = endpoint: mean survival time, dose: 200.0 mg/kg/injection, schedule: Q04DX003 (ip), vehicle: saline with Tween-80
[5] = endpoint: mean survival time, dose: 400.0 mg/kg/injection, schedule: Q04DX003 (ip), vehicle: saline with Tween-80
[6] = endpoint: mean survival time, dose: 100.0 mg/kg/injection, schedule: Q01DX009 (ip), vehicle: saline with Tween-80
[7] = endpoint: mean survival time, dose: 200.0 mg/kg/injection, schedule: Q01DX009 (ip), vehicle: saline with Tween-80
[8] = endpoint: mean survival time, dose: 400.0 mg/kg/injection, schedule: Q01DX009 (ip), vehicle: saline with Tween-80
[9] = endpoint: mean survival time, dose: 6.25 mg/kg/injection, schedule: Q04DX003 (ip), vehicle: saline
[10] = endpoint: mean survival time, dose: 12.5 mg/kg/injection, schedule: Q04DX003 (ip), vehicle: saline with Tween-80
[11] = endpoint: mean survival time, dose: 12.5 mg/kg/injection, schedule: Q04DX003 (ip), vehicle: saline
[12] = endpoint: mean survival time, dose: 25.0 mg/kg/injection, schedule: Q04DX003 (ip), vehicle: saline with Tween-80
[13] = endpoint: mean survival time, dose: 25.0 mg/kg/injection, schedule: Q04DX003 (ip), vehicle: saline
[14] = endpoint: mean survival time, dose: 50.0 mg/kg/injection, schedule: Q01DX009 (ip), vehicle: saline with Tween-80

Measured: T/C

Clc1cc(Cl)c(OCC#CI)c(Cl)c1Cl
inactive: endpoint: mean survival time, dose: 50.0 mg/kg/injection, schedule: Q01DX001 (ip), vehicle: carboxymethylcellulose (CMC) 100 % of control | endpoint: mean survival time, dose: 100.0 mg/kg/injection, schedule: Q01DX001 (ip), vehicle: carboxymethylcellulose (CMC) 100 % of control | endpoint: mean survival time, dose: 200.0 mg/kg/injection, schedule: Q01DX001 (ip), vehicle: carboxymethylcellulose (CMC) 100 % of control | endpoint: mean survival time, dose: 400.0 mg/kg/injection, schedule: Q01DX001 (ip), vehicle: carboxymethylcellulose (CMC) 103 % of control

O=S(=O)(F)c1ccc(N=C=S)cc1
inactive: [1] 107 % of control | [2] 97 % of control | [3] 94 % of control | [4] 97 % of control | [5] 100 % of control

COC(=O)c1cc(C)[nH]c(=O)c1C#N
inactive: [6] 100 % of control | [3] 95 % of control | [7] 100 % of control | [4] 98 % of control | [8] 94 % of control | [5] 96 % of control

CC(C#N)C(N)=O (configuration not stated)
inactive: endpoint: mean survival time, dose: 12.5 mg/kg/injection, schedule: Q01DX009 (ip), vehicle: saline 98 % of control | endpoint: mean survival time, dose: 25.0 mg/kg/injection, schedule: Q01DX009 (ip), vehicle: saline 101 % of control | endpoint: mean survival time, dose: 50.0 mg/kg/injection, schedule: Q01DX009 (ip), vehicle: saline 102 % of control

O=C(C[n+]1cccc(C(=O)Nc2ccc(Cl)cc2)c1)NCc1ccccc1
inactive: endpoint: mean survival time, dose: 100.0 mg/kg/injection, schedule: Q04DX003 (ip), vehicle: saline 97 % of control | endpoint: mean survival time, dose: 200.0 mg/kg/injection, schedule: Q04DX003 (ip), vehicle: saline 94 % of control | endpoint: mean survival time, dose: 400.0 mg/kg/injection, schedule: Q04DX003 (ip), vehicle: saline 102 % of control

[Cl][Pt+2][Cl].[NH-]CC1(C[NH-])CCCC1
active: endpoint: mean survival time, dose: 3.12 mg/kg/injection, schedule: Q04DX003 (ip), vehicle: saline 152 % of control | [9] 197 % of control | [10] 160 % of control | [11] 260 % of control | endpoint: median survival time, dose: 1.0 mg/kg/injection, schedule: Q01DX009 (ip), vehicle: saline 232 % of control | endpoint: median survival time, dose: 2.0 mg/kg/injection, schedule: Q01DX009 (ip), vehicle: saline 175 % of control | endpoint: median survival time, dose: 4.0 mg/kg/injection, schedule: Q01DX001 (ip), vehicle: saline 201 % of control | endpoint: median survival time, dose: 8.0 mg/kg/injection, schedule: Q01DX001 (ip), vehicle: saline 200 % of control
inactive: endpoint: mean survival time, dose: 1.56 mg/kg/injection, schedule: Q04DX003 (ip), vehicle: saline 122 % of control | [12] 98 % of control | [13] 114 % of control | endpoint: median survival time, dose: 4.0 mg/kg/injection, schedule: Q01DX009 (ip), vehicle: saline 101 % of control | endpoint: median survival time, dose: 8.0 mg/kg/injection, schedule: Q01DX009 (ip), vehicle: saline 97 % of control | endpoint: median survival time, dose: 12.0 mg/kg/injection, schedule: Q01DX001 (ip), vehicle: saline 104 % of control | endpoint: median survival time, dose: 18.0 mg/kg/injection, schedule: Q01DX001 (ip), vehicle: saline 97 % of control

CCOC(=O)CC1c2nc3ccccc3cc2CN1C(=O)CCOC(C)=O (configuration not stated)
inactive: [6] 95 % of control | [3] 104 % of control | [7] 92 % of control | [4] 100 % of control | [8] 97 % of control | [5] 97 % of control

Cc1nc2c(nc1C)C(=O)C(N1CCOCC1)=CC2=O
inactive: [9] 100 % of control | endpoint: mean survival time, dose: 12.5 mg/kg/injection, schedule: Q01DX001 (ip), vehicle: saline 87 % of control | [11] 100 % of control | endpoint: mean survival time, dose: 25.0 mg/kg/injection, schedule: Q01DX001 (ip), vehicle: saline 107 % of control | [13] 98 % of control | endpoint: mean survival time, dose: 35.0 mg/kg/injection, schedule: Q04DX003 (ip), vehicle: saline 88 % of control | endpoint: mean survival time, dose: 55.0 mg/kg/injection, schedule: Q04DX003 (ip), vehicle: saline 91 % of control | endpoint: mean survival time, dose: 80.0 mg/kg/injection, schedule: Q04DX003 (ip), vehicle: saline 86 % of control

OCCc1ccncc1
inactive: endpoint: mean survival time, dose: 100.0 mg/kg/injection, schedule: Q01DX001 (ip), vehicle: saline 103 % of control | endpoint: mean survival time, dose: 200.0 mg/kg/injection, schedule: Q01DX001 (ip), vehicle: saline 105 % of control

CSc1cc(C)c(O)c(CO)c1
inactive: endpoint: mean survival time, dose: 100.0 mg/kg/injection, schedule: Q04DX003 (ip), vehicle: other 104 % of control | endpoint: mean survival time, dose: 200.0 mg/kg/injection, schedule: Q04DX003 (ip), vehicle: other 98 % of control | endpoint: mean survival time, dose: 400.0 mg/kg/injection, schedule: Q04DX003 (ip), vehicle: other 100 % of control

C/C=C(\C)c1cc(=O)c2c(C)cc3c(c2o1)C(=O)c1c(O)c(C2CC(C)(N(C)C)C(OC(C)=O)C(C)O2)cc(C2CC(N(C)C)C(O)C(C)O2)c1C3=O (configuration not stated)
inactive: endpoint: mean survival time, dose: 0.15 mg/kg/injection, schedule: Q01DX009 (ip), vehicle: saline 103 % of control | endpoint: mean survival time, dose: 0.31 mg/kg/injection, schedule: Q01DX009 (ip), vehicle: saline 98 % of control | endpoint: mean survival time, dose: 0.62 mg/kg/injection, schedule: Q01DX009 (ip), vehicle: saline 115 % of control and 100 % of control | endpoint: mean survival time, dose: 1.25 mg/kg/injection, schedule: Q01DX009 (ip), vehicle: saline 106 % of control and 111 % of control | endpoint: mean survival time, dose: 2.5 mg/kg/injection, schedule: Q01DX009 (ip), vehicle: saline 105 % of control and 108 % of control | endpoint: mean survival time, dose: 5.0 mg/kg/injection, schedule: Q01DX009 (ip), vehicle: saline 115 % of control

O=C(Nc1cccc(C(F)(F)F)c1)c1cccc(C(=O)Nc2cccc(C(F)(F)F)c2)c1
inactive: [1] 92 % of control | [2] 89 % of control | [14] 89 % of control

Cc1cc(NS(=O)(=O)c2ccc(N=Nc3cc(N=Nc4ccc(S(=O)(=O)Nc5cc(C)nc(C)n5)cc4)c4c(NC(=O)C(Cl)Cl)cccc4c3OC(=O)C(Cl)Cl)cc2)nc(C)n1 (tested in a mixture with another compound)
inactive: endpoint: median survival time, dose: 12.5 mg/kg/injection, schedule: Q01DX009 (ip), vehicle: suspension in saline 103 % of control | endpoint: median survival time, dose: 25.0 mg/kg/injection, schedule: Q01DX009 (ip), vehicle: suspension in saline 103 % of control | endpoint: median survival time, dose: 50.0 mg/kg/injection, schedule: Q01DX009 (ip), vehicle: suspension in saline 98 % of control | endpoint: median survival time, dose: 100.0 mg/kg/injection, schedule: Q01DX009 (ip), vehicle: suspension in saline 104 % of control | endpoint: median survival time, dose: 200.0 mg/kg/injection, schedule: Q01DX009 (ip), vehicle: suspension in saline 104 % of control

NC(=O)/C=C/C(N)=O
inactive: [6] 98 % of control | [7] 98 % of control

CC(=O)NC1CCCC(C)C1 (configuration not stated)
inactive: [3] 96 % of control | [4] 96 % of control | [5] 96 % of control

Cc1c2c[n+](CCCCCCCC[n+]3ccc4c(C)c5c(c(C)c4c3)c3ccccc3n5CCO)ccc2c(C)c2c1c1ccccc1n2CCO
inactive: endpoint: mean survival time, dose: 1.56 mg/kg/injection, schedule: Q04DX003 (ip), vehicle: distilled water + Tween-80 119 % of control | endpoint: mean survival time, dose: 12.5 mg/kg/injection, schedule: Q04DX003 (ip), vehicle: distilled water + Tween-80 114 % of control
active: endpoint: mean survival time, dose: 6.25 mg/kg/injection, schedule: Q04DX003 (ip), vehicle: distilled water + Tween-80 150 % of control and 159 % of control

C=CCOCC(COCC=C)OC1CCS(=O)(=O)C1 (configuration not stated)
inactive: [14] 101 % of control | [6] 97 % of control | [7] 93 % of control

[Cl][Pt+2][Cl].[NH-]c1cccc(C(F)(F)F)c1.[NH-]c1cccc(C(F)(F)F)c1
inactive: [10] 95 % of control | [12] 100 % of control | endpoint: mean survival time, dose: 50.0 mg/kg/injection, schedule: Q04DX003 (ip), vehicle: saline with Tween-80 103 % of control

C=CCS(=O)[O-].[C-]#[O+].[C-]#[O+].[Fe+6].[c-]1[c-][c-][cH-][c-]1
inactive: endpoint: mean survival time, dose: 12.5 mg/kg/injection, schedule: Q04DX002 (ip), vehicle: saline 97 % of control | endpoint: mean survival time, dose: 25.0 mg/kg/injection, schedule: Q04DX002 (ip), vehicle: saline 102 % of control | endpoint: mean survival time, dose: 50.0 mg/kg/injection, schedule: Q04DX002 (ip), vehicle: saline 100 % of control

CCCCC(CC)C(=O)N1CCOCC1 (configuration not stated)
inactive: [6] 96 % of control | [7] 92 % of control | [8] 86 % of control

O=C(CCC(O)c1ccccc1)c1ccccc1 (configuration not stated)
inactive: endpoint: mean survival time, dose: 50.0 mg/kg/injection, schedule: Q04DX002 (ip), vehicle: saline with Tween-80 97 % of control | endpoint: mean survival time, dose: 100.0 mg/kg/injection, schedule: Q04DX002 (ip), vehicle: saline with Tween-80 91 % of control | endpoint: mean survival time, dose: 200.0 mg/kg/injection, schedule: Q04DX002 (ip), vehicle: saline with Tween-80 91 % of control

Reference: PubChem BioAssay AID256 (DTP/NCI, 2004)
